Data on eleven compounds can be found in patent US7998965B2, “Glutamate aggrecanase inhibitors” (Wyeth LLC, priority 2005, dated 2011).

Assay [1] deals with bovine articular cartilage treated with Interleukin 1 alpha (IL-1α). The experiment in a line: Bovine articular cartilage explant cultures: inhibition of degradation of proteoglycan. Format: cell-based. The settings on record: inhibitory effect expressed as percentage, concentration not printed. Summed up:
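Bovine metacarpal cartilage discs (6 mm), equilibrated in serum-free DMEM-based medium, were treated with 5 ng/ml IL-1 plus compound (working solutions 0.1-10 μg/ml), with medium collected and replaced on days 1, 2 and 3. Released proteoglycan was measured by DMMB absorbance at 520 nm against chondroitin sulphate standards, expressed as μg per mg cartilage, and inhibition given as percentage.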

For assay [2], the target named is T1, purified recombinant human Aggrecanase-2 (Ag2t-Phe628-Strep) (Homo sapiens, UniProt Q9UNA0).
T1 construct: the form used is denoted as Ag2t-Phe628-Strep (MW=41,737)
T1 sequence (Q9UNA0 262-628): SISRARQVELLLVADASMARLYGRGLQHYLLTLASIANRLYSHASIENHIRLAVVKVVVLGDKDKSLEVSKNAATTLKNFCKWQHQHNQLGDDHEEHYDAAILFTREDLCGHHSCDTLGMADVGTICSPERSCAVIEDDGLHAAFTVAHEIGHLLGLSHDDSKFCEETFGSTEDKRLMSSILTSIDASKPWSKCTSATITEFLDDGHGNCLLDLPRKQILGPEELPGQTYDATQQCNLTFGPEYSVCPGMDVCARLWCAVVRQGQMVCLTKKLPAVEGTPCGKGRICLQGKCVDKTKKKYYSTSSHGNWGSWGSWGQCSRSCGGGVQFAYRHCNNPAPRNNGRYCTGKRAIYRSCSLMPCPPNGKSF
The experiment in a line: In vitro fluorescence screen for Aggrecanase-2 inhibitors. The settings on record: Table 1; read-out: Agg 2 IC50. It counts as biochemical.

The target in assay [3] is T2, recombinant human catalytic domain of MMP-14 (Homo sapiens, UniProt P50281).
T2 construct: 177 amino acids corresponding to Tyr89-Gly265 of mature human enzyme; purchased Chemicon International, Inc. CC1041
The experiment in a line: In vitro fluorescence assay of MMP-14 activity. The settings on record: Table 1; unit inferred. It counts as biochemical.

Assay [4] has as its target T3, recombinant human catalytic domain of MMP-13 (Homo sapiens, UniProt P45452).
T3 construct: catalytic domain of MMP-13 (165 amino acids, residues 104-268, 19 kDa)
Nature of the assay: In vitro fluorescence assay of MMP-13 activity. It counts as biochemical. The settings on record: Table 1; for IC50: unit inferred.

In the next assay the target is T4, recombinant human MMP-2 (Homo sapiens, UniProt P08253).
T4 sequence (P08253 110-660): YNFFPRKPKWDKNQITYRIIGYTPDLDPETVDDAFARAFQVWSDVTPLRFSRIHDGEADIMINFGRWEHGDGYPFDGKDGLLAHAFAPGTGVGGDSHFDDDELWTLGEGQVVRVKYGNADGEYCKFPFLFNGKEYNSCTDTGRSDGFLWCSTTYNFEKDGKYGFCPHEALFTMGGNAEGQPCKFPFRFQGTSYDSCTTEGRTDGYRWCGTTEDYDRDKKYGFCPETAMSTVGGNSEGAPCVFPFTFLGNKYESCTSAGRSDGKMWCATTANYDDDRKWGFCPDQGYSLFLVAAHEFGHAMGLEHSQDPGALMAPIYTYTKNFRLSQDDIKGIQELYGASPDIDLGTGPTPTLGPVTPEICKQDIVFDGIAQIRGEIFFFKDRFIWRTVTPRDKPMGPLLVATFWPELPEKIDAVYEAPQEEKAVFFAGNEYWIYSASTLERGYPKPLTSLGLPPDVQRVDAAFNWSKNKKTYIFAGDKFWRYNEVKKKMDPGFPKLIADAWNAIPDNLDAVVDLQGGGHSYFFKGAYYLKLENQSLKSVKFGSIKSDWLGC
The experiment in a line: In vitro fluorescence assay of MMP-2 activity.

For assay [5], the target named is T5, purified recombinant human Aggrecanase-1 (rAgg1) (Homo sapiens, UniProt O75173).
T5 sequence (O75173 213-837): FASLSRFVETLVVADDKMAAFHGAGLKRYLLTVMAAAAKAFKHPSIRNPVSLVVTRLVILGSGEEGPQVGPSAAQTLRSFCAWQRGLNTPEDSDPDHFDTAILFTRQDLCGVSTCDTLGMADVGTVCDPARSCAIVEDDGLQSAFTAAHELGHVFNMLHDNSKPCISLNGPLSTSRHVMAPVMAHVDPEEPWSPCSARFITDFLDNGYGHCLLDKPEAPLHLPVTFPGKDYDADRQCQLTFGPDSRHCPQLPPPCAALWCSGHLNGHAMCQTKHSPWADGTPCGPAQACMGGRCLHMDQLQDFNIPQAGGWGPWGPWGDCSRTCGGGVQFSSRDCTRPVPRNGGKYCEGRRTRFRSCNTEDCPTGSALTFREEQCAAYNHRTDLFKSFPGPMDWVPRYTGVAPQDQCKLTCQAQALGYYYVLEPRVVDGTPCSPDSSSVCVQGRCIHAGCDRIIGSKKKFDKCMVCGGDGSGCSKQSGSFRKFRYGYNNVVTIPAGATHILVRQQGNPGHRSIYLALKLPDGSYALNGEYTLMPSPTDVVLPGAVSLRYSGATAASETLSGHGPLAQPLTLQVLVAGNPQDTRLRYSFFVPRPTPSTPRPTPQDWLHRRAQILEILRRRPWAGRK
Nature of the assay: In vitro fluorescence screen for Aggrecanase-1 inhibitors. It counts as biochemical. The settings on record: Table 1; for IC50: read-out: Agg1 IC50; for Ki: enzyme not given, column follows Agg1 IC50, read-out: Ki.

The target of another assay is T6, MMP-1 (Homo sapiens, UniProt P03956).
T6 sequence (P03956 100-469): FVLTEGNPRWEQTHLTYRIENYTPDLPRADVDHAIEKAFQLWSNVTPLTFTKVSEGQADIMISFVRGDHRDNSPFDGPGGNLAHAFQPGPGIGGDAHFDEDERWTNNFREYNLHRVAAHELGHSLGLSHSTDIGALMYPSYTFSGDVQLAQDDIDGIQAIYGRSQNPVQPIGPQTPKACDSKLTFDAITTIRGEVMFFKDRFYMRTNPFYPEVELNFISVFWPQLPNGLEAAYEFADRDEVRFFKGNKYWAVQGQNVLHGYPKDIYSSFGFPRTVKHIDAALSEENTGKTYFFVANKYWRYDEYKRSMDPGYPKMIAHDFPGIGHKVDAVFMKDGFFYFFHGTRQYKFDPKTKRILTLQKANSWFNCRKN
Nature of the assay: MMP-1 of Table 1. Format: biochemical. The settings on record: for IC50: unit inferred; for MMP-1: unit not given.

Setting [6] is: Table 1, first of two columns headed bovine.
[7] abbreviates: Table 1, second of two columns headed bovine.

The structures appear in SMILES notation.

Description for recombinant human MMP-2: A continuous assay was used in which the substrate is a synthetic peptide containing a fluorescent group (7-methoxycoumarin; Mca), which is quenched by energy transfer to a 2,4-dinitrophenyl group. […] The source of enzyme in the assay was the recombinant human MMP-2 (66 kDa; Oncogene Research Products (catalog number PF023 from Calbiochem)). The substrate used was the peptide Mca-PQGL-(3-[2,4-dinitrophenyl]-L-2,3-diaminopropionyl)-AR-OH. The assay buffer consisted of 50 mM Hepes (pH 7.4), 100 mM NaCl, 5 mM CaCl2, and 0.005% Brij-35. […] The plates were then incubated at 30° C. for 15 minutes. The enzymatic reactions were initiated by adding the substrate to a final concentration of 20 μM, and mixing 10 times with a pipette. The final DMSO concentration in the assay was 6.0%.
Plots of the inhibitor concentration vs. the percent inhibition were fit to the following equation: y=(a−d)/[^1+(x/c)^b]+d, a general sigmoidal curve with Hill slope, a to d. x is the inhibitor concentration under test. y is the percent inhibition. a is the limiting response as x approaches zero. As x increases without bound, y tends toward its limit d. c is the inflection point (IC50) for the curve. That is, y is halfway between the lower and upper asymptotes when x=c. b is the slope factor or Hill coefficient.

Regarding `CN(C)c1ccc(CNC(=O)[C@H](CCC(=O)O)NC(=O)c2ccc(-c3ccccc3)cc2)cc1` [Example 8ZZZ, N^2-(biphenyl-4-ylcarbonyl)-N^1-[4-(dimethylamino)benzyl]-L-α-glutamine], the values for the bovine in assay [1] (setting [6]) and in assay [1] (setting [7]) were 72% and 34%, respectively. The half-inhibitory concentration (IC50) (in general, the concentration at which inhibition is half-maximal) in assay [2] was 1.6 µM; in assay [3], more than 200 µM; at recombinant human MMP-2, 13 µM; in assay [5], 0.1 µM; against MMP-1, more than 50 µM. In addition, the MMP-13 result in assay [4] (unit not given) is listed as “no inh”.

Consider `COc1ccc(CNC(=O)[C@H](CCC(=O)O)NC(=O)c2ccc(-c3ccccc3)cc2)cc1OC` [Example 8F, N^2-(1,1′-biphenyl-4-ylcarbonyl)-N^1-(3,4-dimethoxybenzyl)-L-α-glutamine], for which the bovine in assay [1] (setting [6]) stood at 81%; in assay [1] (setting [7]) it was 56%. Moreover, the IC50 is 0.304 µM in assay [2]; approximately 25 µM in assay [3]; approximately 22 µM in assay [4]; 5.63 µM at recombinant human MMP-2; 0.03 µM in assay [5]; more than 200 µM against MMP-1. Also, in assay [5], the Ki (in general, a dissociation constant, usually derived from enzyme kinetics or from competition with a known ligand) came out at 0.012 µM.

`O=C(O)CC[C@H](NC(=O)c1ccc(-c2ccccc2)cc1)C(=O)NCc1ccc2c(c1)OCO2` [Example 7, N^1-(1,3-benzodioxol-5-ylmethyl)-N^2-(1,1′-biphenyl-4-ylcarbonyl)-L-α-glutamine]: the bovine in assay [1] (setting [6]) is given as 61%; in assay [1] (setting [7]) it was 28%. The IC50 in assay [2] was 1.8 µM; in assay [3] it was approximately 13 µM; in assay [4], approximately 13 µM; on recombinant human MMP-2 it was 3 µM; in assay [5], 0.15 µM; at MMP-1, more than 100 µM.

Consider `O=C(O)CC[C@H](NC(=O)c1ccc(-c2ccccc2)cc1)C(=O)NC1CCCCCCC1` [Example 8E, N^2-(1,1′-biphenyl-4-ylcarbonyl)-N^1-cyclooctyl-L-α-glutamine], for which the bovine in assay [1] (setting [6]) is recorded as 79%; in assay [1] (setting [7]), 34%. For the same compound, the IC50 in assay [2] was 0.746 µM; in assay [3] it was approximately 25 µM; in assay [4] it was approximately 25 µM; on recombinant human MMP-2, 3.7 µM; in assay [5], 0.09 µM; against MMP-1, more than 200 µM.

In the case of `O=C(O)CC[C@H](NC(=O)c1ccc(-c2ccccc2)cc1)C(=O)NCc1ccc(Cl)cc1Cl` [Example 8S, N^2-(1,1′-biphenyl-4-ylcarbonyl)-N^1-(2,4-dichlorobenzyl)-L-α-glutamine], the bovine stood at 51% in assay [1] (setting [6]) and 40% in assay [1] (setting [7]). In addition, the 50% inhibitory concentration (IC50) in assay [2] was 1.3 µM; in assay [3] it was approximately 25 µM; in assay [4], more than 200 µM; on recombinant human MMP-2, 3.13 µM; in assay [5], 0.15 µM. The Ki in assay [5] was 0.245 µM. The MMP-1 entry at MMP-1 was “no inh”.

In the case of `O=C(O)CC[C@H](NC(=O)c1ccc(-c2ccccc2)cc1)C(=O)NC1CCCC1` [Example 8G, N^2-(1,1′-biphenyl-4-ylcarbonyl)-N^1-cyclopentyl-L-α-glutamine], the bovine in assay [1] (setting [6]) is 76%; in assay [1] (setting [7]), 39%. The concentration for half-maximal inhibition (IC50) was 0.614 µM in assay [2]; approximately 25 µM in assay [3]; approximately 50 µM in assay [4]; approximately 50 µM on recombinant human MMP-2; 0.08 µM in assay [5]; more than 100 µM at MMP-1.

As for `O=C(O)CC[C@H](NC(=O)c1ccc(-c2ccccc2)cc1)C(=O)NC1C2CC3CC(C2)CC1C3` (stereo partly drawn) [Example 8H, N^1-2-adamantyl-N^2-(1,1′-biphenyl-4-ylcarbonyl)-L-α-glutamine], the results for the bovine in assay [1] (setting [6]) and in assay [1] (setting [7]) were 85% and 67%, respectively. In addition, the 50% inhibitory concentration (IC50) in assay [2] is 0.266 µM; in assay [3], approximately 25 µM; in assay [4], approximately 50 µM; on recombinant human MMP-2, 3.31 µM; in assay [5] it was 0.2 µM; against MMP-1 it was more than 100 µM.

For the compound `CCCCCCCNC(=O)[C@H](CCC(=O)O)NC(=O)c1ccc(-c2ccccc2)cc1` [Example 8JJJ, N^2-(1,1′-biphenyl-4-ylcarbonyl)-N^1-heptyl-L-α-glutamine], the bovine in assay [1] (setting [6]) amounted to 74%; in assay [1] (setting [7]) it was 26%. The IC50 in assay [2] is 0.3 µM; in assay [3], more than 200 µM; in assay [4] it was 30 µM; on recombinant human MMP-2 it was more than 20 µM; in assay [5], 0.054 µM; against MMP-1 it was more than 200 µM. The Ki in assay [5] came to 0.054 µM.

Consider `Cc1cccc(CNC(=O)[C@H](CCC(=O)O)NC(=O)c2ccc(-c3ccccc3)cc2)c1` [Example 8O, N^2-(1,1′-biphenyl-4-ylcarbonyl)-N^1-(3-methylbenzyl)-L-α-glutamine], for which the bovine in assay [1] (setting [6]) is reported as 69%; in assay [1] (setting [7]) it was 34%. In addition, the IC50 in assay [2] was 1.3 µM; in assay [3], approximately 22 µM; in assay [4], 31.4 µM; at recombinant human MMP-2, 5 µM; in assay [5] it was 0.075 µM. Besides, the Ki in assay [5] was determined as 0.082 µM. The MMP-1 entry on MMP-1 is “no inh”.

Regarding `Cc1ccc(CNC(=O)[C@H](CCC(=O)O)NC(=O)c2ccc(-c3ccccc3)cc2)cc1C` [Example 8DD, N^2-(1,1′-biphenyl-4-ylcarbonyl)-N^1-(3,4-dimethylbenzyl)-L-α-glutamine], the bovine in assay [1] (setting [6]) is given as 89%; in assay [1] (setting [7]), 50%. The IC50 in assay [2] is 0.93 µM; in assay [3] it was 16.2 µM; in assay [4], approximately 22 µM; on recombinant human MMP-2, 4.58 µM; in assay [5], 0.094 µM. In addition, on MMP-1, the MMP-1 entry is recorded as “no inh”.

As to `O=C(O)CC[C@H](NC(=O)c1ccc(-c2ccco2)cc1)C(=O)NCc1ccccc1` [Example 12A, N^1-benzyl-N^2-[4-(2-furyl)benzoyl]-L-α-glutamine], the bovine amounted to 41% in assay [1] (setting [6]) and 18% in assay [1] (setting [7]). Also, the half-maximal inhibitory concentration (IC50) in assay [2] is approximately 5 µM; in assay [3] it was approximately 2 µM; in assay [4], approximately 6 µM; on recombinant human MMP-2, approximately 2 µM; in assay [5] it was 0.7 µM; at MMP-1 it was approximately 2 µM.
